Assay results taken from patent US8822700B2, “Hepatitis C virus inhibitors” (Enanta Pharmaceuticals, Inc., priority 2009, dated 2014).

What follows are compounds tested on HCV 1b genotype replicon (assay: HCV replicon assay (qRT-PCR or luciferase), genotype 1b). Conditions: Hepatitis C virus; HCV 1b replicon cell lines (SGR 11-7 or Huh-luc/neo-ET); qRT-PCR or luciferase readout; two labels in one cell = mixture of the two compounds tested; read-out: Genotype-1b replicon EC50 Range.
Assay type: cell-based
From the text: HCV replicon cell lines (kindly provided by R. Bartenschlager) isolated from colonies as described by Lohman et. al. (Lohman et al. (1999) Science 285: 110-113, expressly incorporated by reference in its entirety) and used for all experiments. The HCV replicon has the nucleic acid sequence set forth in EMBL Accession No.: AJ242651, the coding sequence of which is from nucleotides 1801 to 8406.
The coding sequence of the published HCV replicon was synthesized and subsequently assembled in a modified plasmid pBR322 (Promega, Madison, Wis.) using standard molecular biology techniques. One replicon cell line (“SGR 11-7”) stably expresses HCV replicon RNA which consists of (i) the HCV 5′UTR fused to the first 12 amino acids of the capsid protein, (ii) the neomycin phosphotransferase gene (neo), (iii) the IRES from encephalomyocarditis virus (EMCV), and (iv) HCV NS2 to NS5B genes and the HCV 3′UTR. Another replicon cell line (“Huh-luc/neo-ET”) described by Vrolijk et. al. (Vrolijk et. al. (2003) Journal of Virological Methods 110:201-209, expressly incorporated by reference in its entirety) stably expresses HCV replicon RNA which consists of (i) the HCV 5′UTR fused to the first 12 amino acids of the capsid protein, (ii) the firefly luciferase reporter gene, (iii) the ubiquitin gene, (iv) the neomycin phosphotransferase gene (neo), (v) the IRES from encephalomyocarditis virus (EMCV), and (vi) HCV NS3 to NS5B genes that harbor cell culture adaptive mutations (E1202G, T1280I, K1846T) and the HCV 3′UTR.
These cell lines were maintained at 37° C., 5% CO2, 100% relative humidity in DMEM (Cat#11965-084, Invitrogen), with 10% fetal calf serum (“FCS”, Invitrogen), 1% non-essential amino acids (Invitrogen), 1% of Glutamax (Invitrogen), 1% of 100× penicillin/streptomycin (Cat#15140-122, Invitrogen) and Geneticin (Cat#10131-027, Invitrogen) at 0.75 mg/ml or 0.5 mg/ml for 11-7 and Huh-luc/neo-ET cells, respectively.
EC50 values of single agent compounds and combinations were determined by HCV RNA detection using quantitative RT-PCR, according to the manufacturer's instructions, with a TAQMAN® One-Step RT-PCR Master Mix Reagents Kit (Cat# AB 4309169, Applied Biosystems) on an ABI Model 7500 thermocycler. The TaqMan primers used for detecting and quantifying HCV RNA were obtained from Integrated DNA Technologies. HCV RNA was normalized to GAPDH RNA levels in drug-treated cells, which was detected and quantified using the Human GAPDH Endogenous Control Mix (Applied Biosystems, AB 4310884E). Total cellular RNA was purified from 96-well plates using the RNAqueous 96 kit (Ambion, Cat# AM1812). Chemical agent cytotoxicity was evaluated using an MTS assay according to the manufacturer's directions (Promega).
Since clinical drug resistance often develops in viral infections following single agent therapies, there is a need to assess the additive, antagonistic, or synergistic properties of combination therapies. We use the HCV replicon system to assess the potential use of the compound of the present invention or in combination therapies with Interferon alpha, cyclosporine analogs and inhibitors targeting other HCV proteins. The acute effects of a single or combinations of drugs are studied in the “Huh-luc/neo-ET” replicon with each chemical agent titrated in an X or Y direction in a 6 point two-fold dilution curve centered around the EC50 of each drug. Briefly, replicon cells are seeded at 7,000 cells per well in 90 ul DMEM (without phenol red, Invitrogen Cat.#31053-036) per well with 10% FCS, 1% non-essential amino acids, 1% of Glutamax and 1% of 100× penicillin/streptomycin and incubated overnight at 37° C., 5% CO2, 100% relative humidity. […]
For COC(=O)N[C@H](C(=O)N1CC[C@H](NC(=O)c2ccc(-c3ccc(-c4c[nH]c([C@@H]5CCCN5C(=O)[C@@H](NC(=O)OC)C(C)C)n4)cc3)cc2)C1)C(C)C [Example 372], the EC50 was 1 to 10 nM. In the case of COC(=O)N[C@H](C(=O)O[C@@H]1CCC[C@H]1NC(=O)c1ccc(-c2ccc(-c3c[nH]c([C@@H]4CCCN4C(=O)[C@@H](NC(=O)OC)C(C)C)n3)cc2)cc1)C(C)C (racemic) [377a and 377b], the EC50 is reported as < 1 nM. With COC(=O)N[C@H](C(=O)N[C@@H]1CCC[C@H]1NC(=O)c1ccc(-c2ccc(-c3c[nH]c([C@@H]4CCCN4C(=O)[C@@H](NC(=O)OC)C(C)C)n3)cc2)cc1)C(C)C [Example 369] the EC50 was > 10 nM. With COC(=O)N[C@H](C(=O)N[C@@H]1CCC[C@H]1NC(=O)c1ccc(-c2ccc(-c3c[nH]c(C4CCCN4C(=O)[C@@H](NC(=O)OC)C(C)C)n3)cc2)cc1)C(C)C (mixture of isomers) [367a and 367b] the EC50 was < 1 nM. For COC(=O)N[C@H](C(=O)NC[C@H]1CCCN1C(=O)c1ccc(-c2ccc(-c3cnc([C@@H]4CCCN4C(=O)[C@@H](NC(=O)OC)C(C)C)[nH]3)cc2)cc1)C(C)C [Example 381], the EC50 was > 10 nM. In the case of COC(=O)N[C@H](C(=O)N1CCC[C@@H](C(=O)Nc2ccc(-c3ccc(-c4cnc([C@@H]5CCCN5C(=O)[C@@H](NC(=O)OC)C(C)C)[nH]4)cc3)cc2)C1)C(C)C (racemic) [382a and 382b], the EC50 is reported as < 1 nM. Compound COC(=O)N[C@H](C(=O)N1CC[C@H](C(=O)Nc2ccc(-c3ccc(-c4cnc([C@@H]5CCCN5C(=O)[C@@H](NC(=O)OC)C(C)C)[nH]4)cc3)cc2)C1)C(C)C [Example 83] has an EC50 of 1 to 10 nM. With COC(=O)N[C@H](C(=O)N1CCC[C@H]1CNC(=O)c1ccc(-c2ccc(-c3cnc([C@@H]4CCCN4C(=O)[C@@H](NC(=O)OC)C(C)C)[nH]3)cc2)cc1)C(C)C [Example 257] the EC50 was < 1 nM. Compound COC(=O)N[C@H](C(=O)N[C@H]1CCC[C@@H]1C(=O)Nc1ccc(-c2ccc(-c3c[nH]c([C@@H]4CCCN4C(=O)[C@@H](NC(=O)OC)C(C)C)n3)cc2)cc1)C(C)C (racemic) [349a and 349b] has an EC50 of 1 to 10 nM. Compound COC(=O)N[C@H](C(=O)N1CC[C@@H](NC(=O)c2ccc(-c3ccc(-c4c[nH]c([C@@H]5CCCN5C(=O)[C@@H](NC(=O)OC)C(C)C)n4)cc3)cc2)C1)C(C)C [Example 352] has an EC50 of 1 to 10 nM. COC(=O)N[C@H](C(=O)N1CCC(C(=O)Nc2ccc(-c3ccc(-c4c[nH]c([C@@H]5CCCN5C(=O)[C@@H](NC(=O)OC)C(C)C)n4)cc3)cc2)C1)C(C)C (stereo partly shown) [Example 355] showed an EC50 of 1 to 10 nM. In the case of COC(=O)N[C@H](C(=O)N1CC[C@H](C(=O)Nc2ccc3cc(-c4ccc(-c5c[nH]c([C@@H]6CCCN6C(=O)[C@@H](NC(=O)OC)C(C)C)n5)cc4)ccc3c2)C1)C(C)C [Example 365], the EC50 is reported as 1 to 10 nM. In the case of COC(=O)N[C@H](C(=O)N1CC[C@H](C(=O)Nc2ccc3cc(-c4ccc5[nH]c([C@@H]6CCCN6C(=O)[C@@H](NC(=O)OC)C(C)C)nc5c4)ccc3c2)C1)C(C)C [Example 327], the EC50 is reported as > 10 nM. Compound COC(=O)N[C@H](C(=O)N1CCC[C@@H]1CNC(=O)c1ccc(-c2ccc(-c3cnc([C@@H]4CCCN4C(=O)[C@@H](NC(=O)OC)C(C)C)[nH]3)cc2)cc1)C(C)C [Example 380] has an EC50 of 1 to 10 nM. COC(=O)N[C@H](C(=O)N1CCC[C@H]1CNC(=O)c1cccc(-c2ccc3cc(-c4c[nH]c([C@@H]5CCCN5C(=O)[C@@H](NC(=O)OC)C(C)C)n4)ccc3c2)c1)C(C)C [Example 361] gave an EC50 of 1 to 10 nM. With COC(=O)N[C@H](C(=O)N1CCC(C(=O)Nc2ccc(-c3ccc4[nH]c([C@@H]5CCCN5C(=O)[C@@H](NC(=O)OC)C(C)C)nc4c3)cc2)C1)C(C)C (stereo partly shown) [Example 363] the EC50 was > 10 nM. With COC(=O)N[C@H](C(=O)N1CC[C@@H](C(=O)Nc2ccc(-c3ccc(-c4c[nH]c([C@@H]5CCCN5C(=O)[C@@H](NC(=O)OC)C(C)C)n4)cc3)cc2)C1)C(C)C [Example 374] the EC50 was < 1 nM. With COC(=O)N[C@H](C(=O)N1CC[C@H](C(=O)Nc2ccc(-c3ccc(-c4c[nH]c([C@@H]5CCCN5C(=O)[C@@H](NC(=O)OC)C(C)C)n4)cc3)cn2)C1)C(C)C [Example 379] the EC50 was < 1 nM. In the case of COC(=O)N[C@H](C(=O)N[C@@H]1CCC[C@H]1NC(=O)c1ccc(-c2ccc(-c3ccc4[nH]c([C@@H]5CCCN5C(=O)[C@@H](NC(=O)OC)C(C)C)nc4c3)cc2)cc1)C(C)C (racemic) [371a and 371b], the EC50 is reported as < 1 nM.
